Source: a melting point compilation (Tetko et al.; mined from patent text by program, amines drawn as free bases though some values may be those of a salt)

Row | Structure (SMILES) | melting point [°C]
1 | N#Cc1cn(-c2ccccc2)nc1-c1ccc([N+](=O)[O-])o1 | 190 to 192
2 | CC(=O)NCCc1ccc(CO)cc1 | 72 to 73
3 | CS(=O)(=O)Nc1ccc(C(=O)CCC(=O)O)cc1 | 198 to 200
4 | CC(=O)SCC(Cc1noc2ccccc12)C(=O)Nc1cccc(C(=O)O)c1 (stereo not given) | 185 to 187
5 | C=C(C)COc1ccc(F)cc1CN(CC)c1ccc(C(=O)O)nn1 | 121 to 122
6 | COc1ccc(S(=O)(=O)N2CCc3cccc(-c4ccc([N+](=O)[O-])cc4)c32)cc1 | 177 to 178
7 | NC(=O)c1ccc(-c2ccc3nnn(Cc4ccc5ncsc5c4)c3n2)cc1Cl | 238 to 240
8 | C=CS(=O)(=O)NCCCc1ccc(C2=NNC(=O)CC2)cc1 | 133 to 135
9 | COC(=O)c1ccc(CNC(C)=O)cc1S(N)(=O)=O | 173 to 175
10 | COc1ccc(C2(O)C=CC=CC2CCc2c(Cl)cncc2Cl)cc1OC1CCCC1 (stereo not given) | 129 to 130
11 | COc1cccc(C(=O)Nc2ccc3ccc(OC)nc3n2)c1 | 135
12 | CC(C)(C)OC(=O)NCC(Cl)c1cccs1 (stereo not given) | 40 to 43
13 | CCCCOC(=O)[C@H]1CN(c2ccc(C3CCSCC3)cc2)C(=O)O1 | 94 to 96
14 | Cc1snnc1SCC1=C(C(=O)OC(C)(C)C)N2C(=O)[C@@H](NC(=O)Cc3cccs3)[C@H]2SC1 | 155 to 157
15 | COc1ccc2c(c1)NC1(CCN(Cc3ccccc3)CC1)c1cccn1-2 | 123 to 124
16 | O=S(=O)(Nc1onc2c1CCC2)c1ccccc1 | 132
17 | CCCCNC(=O)c1nc(-c2ccccc2)c(-c2ccc(=O)n(C(C)C)n2)s1 | 148
18 | Cc1cc(C)c(Nc2nc(C)ncc2S(=O)(=O)c2ccc(-c3ncc[nH]3)cc2)c(C)c1 | 282 to 284
19 | N#Cc1ccc(Nn2cnnc2)cc1Br | 234 to 236
20 | CCOC(=O)CNc1ncccc1NC(=O)c1ccccc1OC | 111 to 112
21 | O=C(Nc1ccccc1)c1ccc(F)c(Nc2ccccc2)c1 | 132 to 133
22 | CCN(CC)CCCNC(=O)Cn1ncc(-c2ccc(N)cc2)c1-c1ccccc1 | 75 to 76
23 | C=CCn1c(N)c(N=O)c(=O)n(CC=C)c1=O | 170 to 180
24 | CCOC(=O)COc1cc(OC)c2c(c1)OC1(CCCC1)CC2=O | 81 to 82
25 | O=Cc1ccc(-n2ncc3sc4ccccc4c32)cc1 | 261 to 263

Row | Structure (SMILES) | melting point [°C]
26 | O=C(c1ccccc1)c1ccc(Cl)cc1Cl | 41 to 43
27 | CS(=O)c1ccc(-n2cnc3ccc(-c4nnc(C5CC5)o4)cc32)cc1 (stereo not given) | 243 to 245
28 | CCCNC(=O)Nc1c(C)c(C)c2c(c1C)C(c1ccc(C(C)C)cc1)CO2 (stereo not given) | 177 to 178
29 | CCOC(=O)C(C(=O)CCC(C)C)C1c2nccnc2C(=O)N1c1ccc2ccc(Cl)nc2n1 (stereo not given) | 136
30 | O=C(O)C1Cc2ccsc2S1(=O)=O (stereo not given) | 189 to 193
31 | N#CN=C1NCCN1Cc1ccccc1 | 120 to 122
32 | Oc1cccc2nscc12 | 184 to 186
33 | CCOC(=O)CN(C)C(=O)CC1=C(n2nc(-c3c(-c4ccccc4)nn4ccccc34)ccc2=O)CCCC1 | 56 to 60
34 | CCC(=O)Oc1cc(OC)cc(OC)c1C(=O)C=Cc1ccc(SC)cc1 | 108
35 | C=C(CN(C)C)C(O)c1ncc2c(c1O)COC2c1ccc(F)cc1 (stereo not given) | 198
36 | CCCCc1c(OC)cc(C)c(C=CC(C)=CC=CC(C)=CC(=O)OCC)c1C | 147 to 148
37 | CS(=O)(=O)N1CCC(NC(=O)OCc2ccccc2)CC1 | 149 to 153
38 | CC(C)(Cn1c(CO)nc2c(N)nc3ccccc3c21)NS(C)(=O)=O | 262 to 265
39 | NS(=O)(=O)c1cc(C(=O)c2ccccc2)ccc1Cl | 183 to 185
40 | N#Cc1cccc2c1CC(=O)c1ccccc1S2 | 165 to 167
41 | N#CC1=C(C2CC2)Nc2n[nH]cc2C1c1ccccc1Cl (stereo not given) | > 250
42 | CSC(=C[N+](=O)[O-])NCCN(C)Cc1ccc(Cl)nc1 | 93 to 95
43 | O=C(O)c1cn(C2CC2)c2c(F)c(N3CCC(n4ncnn4)C3)c(F)cc2c1=O (stereo not given) | 192 to 199
44 | Cn1c(CCN2CCC(c3ccccc3)CC2)nc2ccc3ccccc3c21 | 182
45 | CN1C(=O)[C@H](NC(=O)CCc2ccc(C#N)cc2)N=C(c2ccccc2)c2ccccc21 | 81 to 85
46 | COc1cccc(NC(=O)c2ccccc2C(=O)O)c1 | 168 to 169
47 | COc1ccc(-c2cccs2)cc1/C=C/C(=O)c1ccc(C(=O)O)cc1 | 195 to 196
48 | CC(C)c1nc2cc(COc3ccc(CC4OC(=O)N(C(c5ccccc5)(c5ccccc5)c5ccccc5)C4=O)cc3)ccc2o1 (stereo not given) | 123 to 125
49 | CSCN(C)C(=O)Nc1ccc(Cl)c(Cl)c1 | 103
50 | CC(C)(C)c1cc(CCC(CCc2cc(C(C)(C)C)c(O)c(C(C)(C)C)c2)OC(=O)c2ccccc2)cc(C(C)(C)C)c1O | 115 to 116
